# Data: ChEMBL document CHEMBL4251586, “Design, synthesis and evaluation of an anthraquinone derivative conjugated to myelin basic protein immunodominant (MBP85-99) epitope: Towards selective immunosuppression” (Eur J Med Chem, 2018)
# pIC50: −log10 of the molar value.
# What was measured:
# Jurkat = assay: Induction of apoptosis in human Jurkat T cells assessed as downregulation of Bcl2 expression at 10 uM after 48 hrs by Western blot analysis; type: functional
# [1] = Drug internalization in HEK293 cells at 10 uM after 30 to 60 mins by inverted fluorescence microscopy; type: ADME, cell-based; details: human, hek293, 10 µM
# HEK293 = assay: Cytotoxicity against HEK293 cells after 48 hrs by MTT assay; type: cell-based, Homo sapiens
Drug uptake [1],SMILES,Activity (Jurkat) [%],"pIC50 (HEK293; Homo sapiens, HEK293, 48 h)","Activity (HEK293; human, hek293, 48 h)"
,O=C(CS)NCCCCNc1ccc(O)c2c1C(=O)c1ccccc1C2=O,40,,
Active,NCCCCNc1ccc(O)c2c1C(=O)c1ccccc1C2=O.O=C(O)C(F)(F)F,,5.03,Dose-dependent effect
,O=C1c2c(O)ccc(O)c2C(=O)c2c(NCCNCCO)ccc(NCCNCCO)c21 [MITOXANTRONE],50,,
